The values below come from patent publication US20230114728A1 (Venatorx Pharmaceuticals, Inc., priority 2019, published 2023).

Structures are written as SMILES. Converted amounts (≈) assume the structure as drawn. Bounds are passed on as bounds.

What all share (experiment): Broth microdilution MIC in CAMHB
Type in all cases: cell-based
A general note: Dilution methods test growth across graded concentrations, often in twofold steps.

One assay concerns A. baumannii ATCC 19606. The settings on record: Acinetobacter baumannii, ATCC19606; MHB; read-out: Minimum Inhibitory Concentration, A. baumannii ATCC 19606. The essentials:
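Hyper-permeable or efflux-deficient strains serve to probe outer-membrane penetration. Growth inhibition is scored visually after 16-20 h at 37° C in CAMHB, starting from 2-8×10^5 CFU/mL.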

The next assay concerns E. coli 901C. The settings on record: Escherichia coli; E. coli 901C (hyper-permeable); MHB; read-out: Minimum Inhibitory Concentration, E. coli 901C. The essentials:
(§1)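 MIC, read by eye, is the lowest compound concentration giving no bacterial growth after 16-20 h at 37° C. Test compounds are serially diluted 2-fold in CAMHB and seeded with 2-8×10^5 CFU/mL of bacteria taken from a 3-5 h shaking culture, following CLSI methods.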

The subject of the next assay is E. coli AG100A. The settings on record: Escherichia coli, read-out: Minimum Inhibitory Concentration, E. coli AG100A. The essentials: as §1
The subject of a further assay is E. coli AG100. The settings on record: Escherichia coli; E. coli AG100 (wild-type parent); MHB; read-out: Minimum Inhibitory Concentration, E. coli AG100. Put shortly: as §1
A further assay deals with E. coli ATCC 25922. As to conditions: Escherichia coli, ATCC25922; E. coli ATCC 25922; MHB; read-out: Minimum Inhibitory Concentration, E. coli 25922. The essentials: as §1
For the next assay, the system named is E. coli D22. As to conditions: Escherichia coli; E. coli D22 (hyper-permeable); MHB; read-out: Minimum Inhibitory Concentration, E. coli D22. Put shortly:
as §1

The subject of assay [1] is K. pneumoniae 848844 producing SHV-11 and KPC-2. As to conditions: Klebsiella pneumoniae, read-out: Minimum Inhibitory Concentration, K. pneumoniae 848844. The essentials:
as §1

For assay [2], the system named is K. pneumoniae SI-117 producing VIM-1. The settings on record: Klebsiella pneumoniae, read-out: Minimum Inhibitory Concentration, K. pneumoniae SI-117. The essentials: as §1
Assay [3] has as its system K. pneumoniae UMM producing SHV-5 and KPC-2. As to conditions: Klebsiella pneumoniae, read-out: Minimum Inhibitory Concentration, K. pneumoniae UMM. The essentials:
as §1

Assay [4] relates to P. aeruginosa (ΔmexAB-oprM). The settings on record: Pseudomonas aeruginosa, read-out: Minimum Inhibitory Concentration, P. aeruginosa ΔmexAB-OprM. The essentials: as §1
Another assay concerns P. aeruginosa ATCC 27853. The settings on record: Pseudomonas aeruginosa, ATCC27853; MHB; read-out: Minimum Inhibitory Concentration, P. aeruginosa ATCC 27853. Put shortly: as §1
A further assay has as its system P. aeruginosa ATCC 35151. As to conditions: Pseudomonas aeruginosa, ATCC35151; MHB; hyper-permeable strain; read-out: Minimum Inhibitory Concentration, P. aeruginosa ATCC 35151. Put shortly:
as §1

Turning to `CCN1CCN(C(=O)N[C@@H](C(=O)N[C@H]2Cc3cccc(C(=O)O)c3OB2O)c2ccc(C(=O)O)cc2)C(=O)C1=O` (single isomer, unassigned) [Example 124], the MIC was greater than 128 µg/mL in the assay on A. baumannii ATCC 19606; less than 0.25 µg/mL with E. coli 901C; 2 to 4 µg/mL (≈ 3.62 to 7.24 µM) with E. coli AG100A; 8 to 16 µg/mL (≈ 14.5 to 29 µM) in the assay on E. coli AG100; 32 to 64 µg/mL (≈ 57.9 to 116 µM) in the assay with E. coli ATCC 25922; 2 to 4 µg/mL (≈ 3.62 to 7.24 µM) in the assay with E. coli D22. Further, the MIC in [1] was greater than 128 µg/mL; in [2], greater than 128 µg/mL; in assay [3] it was 32 to 64 µg/mL (≈ 57.9 to 116 µM); in assay [4] it was 2 to 4 µg/mL (≈ 3.62 to 7.24 µM); in the assay on P. aeruginosa ATCC 27853, 32 to 64 µg/mL (≈ 57.9 to 116 µM); with P. aeruginosa ATCC 35151 it was less than 0.25 µg/mL.

Take `CCN1CCN(C(=O)N[C@H](C(=O)N[C@H]2Cc3ccc(F)c(C(=O)O)c3OB2O)c2c(F)cc(O)c(O)c2Cl)C(=O)C1=O` (single isomer, unassigned) [Example 125]: the MIC in the assay on A. baumannii ATCC 19606 is greater than 128 µg/mL; in the assay with E. coli 901C, less than 0.25 µg/mL; in the assay with E. coli AG100A, 2 to 4 µg/mL (≈ 3.27 to 6.55 µM); with E. coli AG100, 32 to 64 µg/mL (≈ 52.4 to 105 µM); in the assay with E. coli ATCC 25922, 32 to 64 µg/mL (≈ 52.4 to 105 µM); with E. coli D22 it was 2 to 4 µg/mL (≈ 3.27 to 6.55 µM). Besides, the MIC in assay [1] is 32 to 64 µg/mL (≈ 52.4 to 105 µM); in [2], 32 to 64 µg/mL (≈ 52.4 to 105 µM); in assay [3], 32 to 64 µg/mL (≈ 52.4 to 105 µM); in assay [4] it was 32 to 64 µg/mL (≈ 52.4 to 105 µM); with P. aeruginosa ATCC 27853 it was greater than 128 µg/mL; in the assay on P. aeruginosa ATCC 35151, 2 to 4 µg/mL (≈ 3.27 to 6.55 µM).

With `NCCN1CCN(C(=O)N[C@@H](C(=O)N[C@H]2Cc3ccc(F)c(C(=O)O)c3OB2O)c2c(F)cc(O)cc2F)C(=O)C1=O` (single isomer, unassigned) [Example 127], the MIC is greater than 128 µg/mL in the assay on A. baumannii ATCC 19606; 2 to 4 µg/mL (≈ 3.37 to 6.74 µM) with E. coli 901C; 8 to 16 µg/mL (≈ 13.5 to 27 µM) in the assay with E. coli AG100A; 8 to 16 µg/mL (≈ 13.5 to 27 µM) with E. coli AG100; 8 to 16 µg/mL (≈ 13.5 to 27 µM) in the assay with E. coli ATCC 25922; 2 to 4 µg/mL (≈ 3.37 to 6.74 µM) with E. coli D22. Further, the MIC in assay [1] was 32 to 64 µg/mL (≈ 53.9 to 108 µM); in assay [2] it was 32 to 64 µg/mL (≈ 53.9 to 108 µM); in assay [3] it was 8 to 16 µg/mL (≈ 13.5 to 27 µM); in [4], 8 to 16 µg/mL (≈ 13.5 to 27 µM); with P. aeruginosa ATCC 27853, greater than 128 µg/mL; in the assay on P. aeruginosa ATCC 35151, 0.5 to 1 µg/mL (≈ 0.843 to 1.69 µM).

Consider `NCCN1CCN(C(=O)N[C@H](C(=O)N[C@H]2Cc3ccc(F)c(C(=O)O)c3OB2O)c2c(F)cc(O)cc2F)C(=O)C1=O` (single isomer, unassigned) [Example 128], for which the MIC was greater than 128 µg/mL in the assay with A. baumannii ATCC 19606; 8 to 16 µg/mL (≈ 13.5 to 27 µM) in the assay with E. coli 901C; 32 to 64 µg/mL (≈ 53.9 to 108 µM) in the assay with E. coli AG100A; 32 to 64 µg/mL (≈ 53.9 to 108 µM) with E. coli AG100; 32 to 64 µg/mL (≈ 53.9 to 108 µM) in the assay with E. coli ATCC 25922; 8 to 16 µg/mL (≈ 13.5 to 27 µM) in the assay with E. coli D22. Moreover, the MIC was greater than 128 µg/mL in assay [1]; greater than 128 µg/mL in [2]; 32 to 64 µg/mL (≈ 53.9 to 108 µM) in assay [3]; 32 to 64 µg/mL (≈ 53.9 to 108 µM) in [4]; greater than 128 µg/mL in the assay with P. aeruginosa ATCC 27853; 2 to 4 µg/mL (≈ 3.37 to 6.74 µM) in the assay on P. aeruginosa ATCC 35151.

For the molecule `CS(=O)(=O)N1CCN(C(=O)N[C@@H](C(=O)N[C@H]2Cc3cccc(C(=O)O)c3OB2O)c2c(F)cc(O)cc2F)C1=O` (single isomer, unassigned) [Example 135], the MIC is greater than 128 µg/mL in the assay on A. baumannii ATCC 19606; less than 0.25 µg/mL with E. coli 901C; 0.5 to 1 µg/mL (≈ 0.859 to 1.72 µM) in the assay with E. coli AG100A; 32 to 64 µg/mL (≈ 55 to 110 µM) in the assay with E. coli AG100; 8 to 16 µg/mL (≈ 13.7 to 27.5 µM) in the assay with E. coli ATCC 25922; 2 to 4 µg/mL (≈ 3.43 to 6.87 µM) with E. coli D22. In addition, the MIC was 32 to 64 µg/mL (≈ 55 to 110 µM) in [1]; 32 to 64 µg/mL (≈ 55 to 110 µM) in assay [2]; 32 to 64 µg/mL (≈ 55 to 110 µM) in assay [3]; 32 to 64 µg/mL (≈ 55 to 110 µM) in [4]; greater than 128 µg/mL with P. aeruginosa ATCC 27853; 2 to 4 µg/mL (≈ 3.43 to 6.87 µM) with P. aeruginosa ATCC 35151.

Take `CS(=O)(=O)N1CCN(C(=O)N[C@H](C(=O)N[C@H]2Cc3cccc(C(=O)O)c3OB2O)c2c(F)cc(O)cc2F)C1=O` (single isomer, unassigned) [Example 136]: the MIC in the assay with A. baumannii ATCC 19606 is greater than 128 µg/mL; in the assay with E. coli 901C, 0.5 to 1 µg/mL (≈ 0.859 to 1.72 µM); in the assay on E. coli AG100A it was 8 to 16 µg/mL (≈ 13.7 to 27.5 µM); with E. coli AG100, greater than 128 µg/mL; in the assay with E. coli ATCC 25922, greater than 128 µg/mL; in the assay on E. coli D22, 8 to 16 µg/mL (≈ 13.7 to 27.5 µM). For the same molecule, the MIC in assay [1] was greater than 128 µg/mL; in assay [2], greater than 128 µg/mL; in assay [3], greater than 128 µg/mL; in assay [4], greater than 128 µg/mL; with P. aeruginosa ATCC 27853, greater than 128 µg/mL; in the assay with P. aeruginosa ATCC 35151 it was 2 to 4 µg/mL (≈ 3.43 to 6.87 µM).
